Test results from patent publication US12398154B2, “Azaquinazoline pan-KRas inhibitors” (Mirati Therapeutics, Inc., priority 2020, dated 2025).

Assays:
pERK in H358 cells = experiment: Inhibition of KRas phosphorylation of ERK (Cisbio HTRF pERK assay); details: Homo sapiens, NCI-H358, read-out: Inhibition (HTRF IC50) of KRas-mediated Phosphorylation of ERK, H358
Experimental: To harvest cells from flask using 0.05% Trypsin/EDTA solution. Add 10 mL of media to stop trypsinizing. Pipette the cells into a conical bottom 50 mL centrifuge tube and centrifuge 5 min×1000 rpm. • 2. Re-suspend the cell pellet in media, take a cell count, and then adjust the cell density using fresh media. • 3. Seed 6,000 cells into cell culture plate with 50 μL media. […] Incubate cell plate overnight in a 37° C., 5% CO2 incubator. • Compound titrations • 1. Use Tecan to complete the compound addition. Compounds start from 10 uM top, 3-fold dilution, and 10 doses. The final DMSO concentration is 0.8%. Dispensed 0.2 uM Trametinib as Min control. • 2. Incubate cell plate for 3 hrs in the incubator. • Detection with cisbio pERK HTRF kit • 1. […] At the end of the compound treatment, flick-off the media. • 3. Add 35 μL of lysis buffer per well using a Multidrop Combi. Then place on a plate agitator shaking at 300 rpm at 4° C. for 40 mins. • 4. Make up the HTRF antibody buffer. For each assay plate, mix 50 μL of d2-conjugate antibody with 950 μL of detection buffer. Similarly, mix 50 μL of Cryptate antibody with 950 μL of detection buffer. Then mix the two diluted antibodies together. • 5. Dispense 3.4 μL the antibody buffer to wells of an empty assay plate. Seal the plate and centrifuge plate 30 sec×1000 rpm. • 6. At the end of the 4° C. lysis, centrifuge the lysate plates 3 mins×1500 rpm. • 7. Use the Bravo to transfer 13.6 μL of lysate from cell culture plate to assay plate.
Then incubate assay plate for 2 hrs at room temperature. […] At the end of incubation, read plate on the Envision after centrifuging plate 30 sec× • 1000 rpm.

[1] = test system: phospho-ERK in NCI-H460 (Q61H) cells; experiment: Inhibition of KRas-mediated phosphorylation of ERK (in-cell western); assay type: cell-based; details: Homo sapiens, NCI-H460, 3 h, 3 hours compound, phospho-ERK normalized to GAPDH
Summary of the method: (§1)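 Following fixation in formaldehyde and permeabilization in cold methanol, ERK phosphorylated at Thr202/Tyr204 was quantified against GAPDH.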

[2] = test system: phospho-ERK in NCI-H727 (G12V) cells; experiment: as above; assay type: cell-based; details: Homo sapiens, NCI-H727, 3 h, 3 hours compound, phospho-ERK normalized to GAPDH
Summary of the method: as §1

[3] = test system: phospho-ERK in AsPC-1 (G12D) cells; experiment: as above; assay type: cell-based; details: Homo sapiens, ASPC1, 3 h, 3 hours compound, phospho-ERK normalized to GAPDH
Summary of the method: as §1

pERK in H460 cells = experiment: Inhibition of KRas phosphorylation of ERK (Cisbio HTRF pERK assay); details: Homo sapiens, NCI-H460, read-out: Inhibition (HTRF IC50) of KRas-mediated Phosphorylation of ERK, H460
KRas G12D = KRas G12D (Homo sapiens, UniProt P01116, G12D); experiment: biochemical;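 note: TR-FRET displacement binding assay on KRas, read after a one-hour incubation at room temperature, IC50 fitted from percent-of-control values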
Experimental: (§2) The ability of a compound to bind to KRas was measured using a TR-FRET displacement assay. […] After a 60-minute incubation at room temperature, the reaction was measured using a BMG LABTECH CLARIO star Plus via TR-FRET. […] The POC values were fit to a 4-parameter IC50 equation and the IC50 value reported.

pERK in ASPC1 cells = experiment: Inhibition of KRas phosphorylation of ERK (Cisbio HTRF pERK assay); details: Homo sapiens, ASPC1, read-out: Inhibition (HTRF IC50) of KRas-mediated Phosphorylation of ERK, AsPC-1
pERK in HCT116 cells = experiment: as above; details: Homo sapiens, HCT-116, read-out: Inhibition (HTRF IC50) of KRas-mediated Phosphorylation of ERK, HCT116
pERK in A549 cells = experiment: as above; details: Homo sapiens, A549, read-out: Inhibition (HTRF IC50) of KRas-mediated Phosphorylation of ERK, A549
pERK in H727 cells = experiment: as above; details: Homo sapiens, NCI-H727, read-out: Inhibition (HTRF IC50) of KRas-mediated Phosphorylation of ERK, H727
pERK in MKN1 cells = experiment: as above; details: Homo sapiens, MKN-1, 3 h, read-out: Inhibition (HTRF IC50) of KRas-mediated Phosphorylation of ERK, MKN1
pERK in PSN1 cells = experiment: as above; details: Homo sapiens, PSN1, 3 h, read-out: Inhibition (HTRF IC50) of KRas-mediated Phosphorylation of ERK, PSN1
KRas G12R = KRas G12R (Homo sapiens, UniProt P01116, G12R); experiment: biochemical;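 note: TR-FRET displacement assay of compound binding to KRas, read after one hour at room temperature, potency from a four-parameter fit of percent-of-control values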
Experimental: as §2

KRas G12V = KRas G12V (Homo sapiens, UniProt P01116, G12V); experiment: biochemical;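 note: KRas binding measured by TR-FRET displacement at room temperature, IC50 fitted from percent of control values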
Experimental: as §2

[4] = test system: phospho-ERK in MKN1 (WTdep) cells; experiment: Inhibition of KRas-mediated phosphorylation of ERK (in-cell western); assay type: cell-based; details: Homo sapiens, MKN-1, 3 hours compound, phospho-ERK normalized to GAPDH
Summary of the method: as §1

KRas WT = KRas WT (Homo sapiens, UniProt P01116); experiment: biochemical;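 note: binding to KRas read as TR-FRET displacement after a one-hour room-temperature incubation, IC50 derived from percent-of-control values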
Experimental: as §2

KRas G12S = KRas G12S (Homo sapiens, UniProt P01116, G12S); experiment: biochemical;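 note: TR-FRET displacement binding to KRas, read after one hour incubation at room temperature, IC50 from four-parameter fit of percent of control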
Experimental: as §2

KRas G12C = KRas G12C (Homo sapiens, UniProt P01116, G12C); experiment: biochemical;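 note: binding to KRas assessed by TR-FRET displacement after one hour incubation at room temperature, potency fitted from percent-of-control values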
Experimental: as §2

KRas G12A = KRas G12A (Homo sapiens, UniProt P01116, G12A); experiment: biochemical;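 note: binding to KRas measured by TR-FRET displacement after one hour at room temperature, IC50 from a four-parameter fit of percent-of-control values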
Chain of KRas G12A (P01116 1-169 isoform P01116-2 G12A): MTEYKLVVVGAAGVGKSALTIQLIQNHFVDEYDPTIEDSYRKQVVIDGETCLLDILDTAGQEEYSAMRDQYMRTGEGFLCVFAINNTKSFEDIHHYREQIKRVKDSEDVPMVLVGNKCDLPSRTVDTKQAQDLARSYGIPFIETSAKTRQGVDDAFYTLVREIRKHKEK
Experimental: as §2

Chain of KRas G12D (P01116 1-169 isoform P01116-2 G12D): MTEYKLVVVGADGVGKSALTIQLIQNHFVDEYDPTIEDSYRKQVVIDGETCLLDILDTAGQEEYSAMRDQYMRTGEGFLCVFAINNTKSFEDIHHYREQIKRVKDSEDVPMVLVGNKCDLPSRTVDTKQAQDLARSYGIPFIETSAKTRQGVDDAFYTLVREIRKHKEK
Chain of KRas G12S (P01116 1-169 isoform P01116-2 G12S): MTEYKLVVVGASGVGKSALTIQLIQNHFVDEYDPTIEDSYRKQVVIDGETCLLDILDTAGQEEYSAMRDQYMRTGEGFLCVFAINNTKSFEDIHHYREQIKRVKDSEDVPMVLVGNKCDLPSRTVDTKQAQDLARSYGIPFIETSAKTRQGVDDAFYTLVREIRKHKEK
Chain of KRas G12R (P01116 1-169 isoform P01116-2 G12R): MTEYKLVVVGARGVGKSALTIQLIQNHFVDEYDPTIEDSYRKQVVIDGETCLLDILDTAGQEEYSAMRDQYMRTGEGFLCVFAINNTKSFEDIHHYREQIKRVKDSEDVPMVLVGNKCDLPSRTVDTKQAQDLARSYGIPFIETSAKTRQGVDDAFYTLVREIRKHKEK
Chain of KRas G12C (P01116 1-169 isoform P01116-2 G12C): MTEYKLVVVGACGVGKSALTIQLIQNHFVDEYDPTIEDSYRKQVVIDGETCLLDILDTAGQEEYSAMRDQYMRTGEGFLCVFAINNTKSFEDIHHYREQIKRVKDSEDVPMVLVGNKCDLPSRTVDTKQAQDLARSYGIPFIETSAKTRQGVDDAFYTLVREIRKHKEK
Chain of KRas WT (P01116 1-169 isoform P01116-2): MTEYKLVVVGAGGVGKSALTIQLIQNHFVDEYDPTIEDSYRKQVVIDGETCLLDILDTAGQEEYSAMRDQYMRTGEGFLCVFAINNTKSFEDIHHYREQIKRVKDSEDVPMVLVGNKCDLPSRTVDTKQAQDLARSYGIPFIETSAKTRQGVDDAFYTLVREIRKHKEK
Chain of KRas G12V (P01116 1-169 isoform P01116-2 G12V): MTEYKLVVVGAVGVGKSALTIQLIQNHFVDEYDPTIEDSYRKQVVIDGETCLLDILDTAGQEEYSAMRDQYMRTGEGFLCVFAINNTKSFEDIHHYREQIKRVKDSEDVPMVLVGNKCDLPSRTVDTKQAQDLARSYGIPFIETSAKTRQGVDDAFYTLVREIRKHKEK

Compound	IC50 (pERK in H358 cells)	IC50 [1]	IC50 [2]	IC50 [3]	IC50 (pERK in H460 cells)	IC50 (KRas G12D)	IC50 (pERK in ASPC1 cells)	IC50 (pERK in HCT116 cells)	IC50 (pERK in A549 cells)	IC50 (pERK in H727 cells)	IC50 (pERK in MKN1 cells)	IC50 (pERK in PSN1 cells)	IC50 (KRas G12R)	IC50 (KRas G12V)	IC50 [4]	IC50 (KRas WT)	IC50 (KRas G12S)	IC50 (KRas G12C)	IC50 (KRas G12A)
CCc1c(F)ccc2cc(O)cc(-c3ncc4c(N5CCCC(O)(C(F)F)C5)nc(OC[C@@]56CCCN5C[C@H](F)C6)nc4c3F)c12 (stereo partly drawn) [Example 184]	0.015 µM	30 nM	201 nM	66 nM	0.039 µM	≤ 0.002 µM	0.007 µM	0.091 µM	0.044 µM	0.09 µM	0.007 µM	1.23 µM	0.003 µM	≤ 0.002 µM	–	–	–	–	–
CCc1c(F)ccc2cc(O)cc(-c3ncc4c(N5CCC[C@@]6(CNC(=O)N6)C5)nc(OC[C@@]56CCCN5C[C@H](F)C6)nc4c3F)c12 [Example 300, (R)-7-(7-(8-ethyl-7-fluoro-3-hydroxynaphthalen-1-yl)-8-fluoro-2-(((2R,7aS)-2-fluorohexahydro-1H-pyrrolizin-7a-yl)methoxy)pyrido[4,3-d]pyrimidin-4-yl)-1,3,7triazaspiro[4.5]decan-2-one]	0.014 µM	71 nM	372 nM	251 nM	–	≤ 0.002 µM	0.038 µM	–	–	0.089 µM	0.007 µM	1.38 µM	≤ 0.002 µM	≤ 0.002 µM	37 nM	–	–	–	–
CCc1c(F)ccc2cc(O)cc(-c3ncc4c(N5CCCCCC(S(C)(=O)=O)C5)nc(OC[C@@]56CCCN5C[C@H](F)C6)nc4c3F)c12 (stereo partly drawn) [Example 309, 5-ethyl-6-fluoro-4-(8-fluoro-2-(((2R,7aS)-2-fluorohexahydro-1H-pyrrolizin-7a-yl)methoxy)-4-(3-(methylsulfonyl)azocan-1-yl)pyrido[4,3-d]pyrimidin-7-yl)naphthalen-2-ol]	0.026 µM	59 nM	272 nM	176 nM	0.057 µM	0.004 µM	0.054 µM	0.026 µM	0.113 µM	0.037 µM	0.002 µM	8.33 µM	0.003 µM	≤ 0.002 µM	–	–	–	–	–
CCc1c(F)ccc2cc(O)cc(-c3ncc4c(N5CCC[C@@](C)(O)C5)nc(OC[C@]56CCCN5[C@H](COC(=O)N(C)C)CC6)nc4c3F)c12 [Example 313, ((3S,7aR)-7a-(((7-(8-ethyl-7-fluoro-3-hydroxynaphthalen-1-yl)-8-fluoro-4-((R)-3-hydroxy-3-methylpiperidin-1-yl)pyrido[4,3-d]pyrimidin-2-yl)oxy)methyl)hexahydro-1H-pyrrolizin-3-yl)methyl dimethylcarbamate]	0.004 µM	–	–	–	0.038 µM	≤ 0.002 µM	0.013 µM	0.042 µM	0.038 µM	0.028 µM	0.007 µM	2.12 µM	≤ 0.002 µM	≤ 0.002 µM	–	≤ 0.002 µM	≤ 0.002 µM	≤ 0.002 µM	≤ 0.002 µM
CCc1c(F)ccc2cc(O)cc(-c3ncc4c(N5CCC[C@@](C)(O)C5)nc(OC[C@@]56CCCN5[C@H](COC(=O)N(C)C)CC6)nc4c3F)c12 [Example 314, ((3S,7aS)-7a-(((7-(8-ethyl-7-fluoro-3-hydroxynaphthalen-1-yl)-8-fluoro-4-((R)-3-hydroxy-3-methylpiperidin-1-yl)pyrido[4,3-d]pyrimidin-2-yl)oxy)methyl)hexahydro-1H-pyrrolizin-3-yl)methyl dimethylcarbamate]	0.002 µM	–	–	–	0.014 µM	≤ 0.002 µM	0.009 µM	0.021 µM	0.019 µM	0.021 µM	0.003 µM	0.407 µM	≤ 0.002 µM	≤ 0.002 µM	–	≤ 0.002 µM	≤ 0.002 µM	≤ 0.002 µM	≤ 0.002 µM
CCc1c(F)ccc2cc(O)cc(-c3ncc4c(N5CCCCCC5)nc(OC[C@@]56CCCN5C[C@H](F)C6)nc4c3F)c12 [Example 317, 4-(4-(azepan-1-yl)-8-fluoro-2-(((2R,7aS)-2-fluorohexahydro-1H-pyrrolizin-7a-yl)methoxy)pyrido[4,3-d]pyrimidin-7-yl)-5-ethyl-6-fluoronaphthalen-2-ol]	0.985 µM	–	–	–	0.287 µM	≤ 0.002 µM	0.04 µM	0.098 µM	0.197 µM	0.046 µM	0.02 µM	3.93 µM	≤ 0.002 µM	≤ 0.002 µM	–	≤ 0.002 µM	≤ 0.002 µM	≤ 0.002 µM	≤ 0.002 µM
CCc1c(F)ccc2cc(O)cc(-c3ncc4c(N5CCOC[C@@](C)(O)C5)nc(OCC5(CN6CCCC6)CC5)nc4c3F)c12 [Example 321, (S)-4-(7-(8-ethyl-7-fluoro-3-hydroxynaphthalen-1-yl)-8-fluoro-2-((1-(pyrrolidin-1-ylmethyl)cyclopropyl)methoxy)pyrido[4,3-d]pyrimidin-4-yl)-6-methyl-1,4-oxazepan-6-ol]	0.007 µM	–	–	–	0.071 µM	≤ 0.002 µM	0.016 µM	0.039 µM	0.099 µM	0.03 µM	0.003 µM	7.76 µM	≤ 0.002 µM	≤ 0.002 µM	–	≤ 0.002 µM	≤ 0.002 µM	≤ 0.002 µM	≤ 0.002 µM
CCc1c(F)ccc2cc(O)cc(-c3ncc4c(N5CCCn6nc(C(=O)N(C)C)cc6C5)nc(OC[C@@]56CCCN5C[C@H](F)C6)nc4c3F)c12 [Example 326, 5-(7-(8-ethyl-7-fluoro-3-hydroxynaphthalen-1-yl)-8-fluoro-2-(((2R,7aS)-2-fluorohexahydro-1H-pyrrolizin-7a-yl)methoxy)pyrido[4,3-d]pyrimidin-4-yl)-N,N-dimethyl-5,6,7,8-tetrahydro-4H-pyrazolo[1,5-a][1,4]diazepine-2-carboxamide]	0.018 µM	–	–	–	0.253 µM	≤ 0.002 µM	0.01 µM	0.274 µM	0.138 µM	0.026 µM	0.008 µM	≥ 10 µM	≤ 0.002 µM	≤ 0.002 µM	–	≤ 0.002 µM	≤ 0.002 µM	≤ 0.002 µM	≤ 0.002 µM
C#Cc1c(F)ccc2cc(O)cc(-c3ncc4c(N5C[C@@H]6C[C@H](C5)[C@H](O)C6)nc(OC[C@@]56CCCN5C[C@H](F)C6)nc4c3F)c12 [Example 388, (1R,5R,6R)-3-(7-(8-ethynyl-7-fluoro-3-hydroxynaphthalen-1-yl)-8-fluoro-2-(((2R,7aS)-2-fluorohexahydro-1II-pyrrolizin-7a-yl)methoxy)pyrido[4,3-d]pyrimidin-4-yl)-3-azabicyclo[3,2,1]octan-6-ol]	0.001 µM	16 nM	16 nM	–	0.021 µM	≤ 0.002 µM	0.014 µM	0.009 µM	0.018 µM	0.005 µM	0.008 µM	0.409 µM	≤ 0.002 µM	≤ 0.002 µM	–	≤ 0.002 µM	≤ 0.002 µM	≤ 0.002 µM	≤ 0.002 µM
